Earlier results in US8663696B2, “Film delivery system for tetrahydrolipstatin” (MonoSol Rx, LLC, priority 2007, dated 2014).

What was measured:
[1] = natural crystalline state
lipase = settings: background statement on the drug

## CCCCCCCCCCC[C@@H](C[C@@H]1OC(=O)[C@H]1CCCCCC)OC(=O)[C@H](CC(C)C)NC=O [Tetrahydrolipstatin, (2S,3S,5S)-5-[(S)-2-formamido-4-methyl-valeranyloxy]-2-hexyl-3-hexadecanoic acid lactone]
[1]
  water solubility: very water-insoluble
lipase
  absorption of dietary fat blocked: approximately 30%
